Columns and labels:
Format in all cases: in vivo
[1] = test system: spring barley, HORVS Montoya; test: Tank-mix; post-emergence: crop damage by herbicide with/without safener mefenpyr-diethyl
Procedure: (§1) Seeds of crops (spring wheat, TRZAS; spring barley, HORVS; maize, ZEAMA) were placed in sandy loam soil in peat pots, covered with soil and cultivated in a greenhouse under good growth conditions. Two to three weeks after sowing, the test plants were treated at the 1 to 3-leaf stage. The herbicide/safener active compound combinations according to the invention, formulated as wettable powders or emulsion concentrates, and, in parallel tests, the correspondingly formulated individual active compounds were sprayed onto the green parts of the plants in various dosages using an amount of water of 300 l/ha (converted).
(§2) The pots were returned under good growing conditions in a glasshouse and a visual assessment of herbicidal effects was made at intervals from 1 to 3 weeks after herbicide application (DAT=days after treatment). Assessment was on a percentage basis in comparison with untreated control plants (0%=no injury, 100%=complete kill).

[2] = test system: spring wheat, TRZAS Triso; test: as above
Procedure: as §1, §2

[3] = test system: spring barley, HORVS Montoya; test: Seed treatment with safener; post-emergence herbicide, crop damage; details: for HER effect + SAF / Reduction [%] / Reduction [Difference]: mefenpyr-diethyl 0.5 g a.i./kg seed
From the text: (§3) For safener seed treatment trials, sufficient seed amounts of the respective crops (spring wheat (TRZAS); spring barley (HORVS)) were weighed into screw cap glass bottles with a minimum volume trice of the seeds.
(§4) As a first step, specified safeners formulated as wettable powder (WP) or wettable granules (WG) were weighed out for the required dosages (g a.i./kg seed), corresponding to the seed amounts. The safener amounts were mixed with a coloured slurry blind formulation type, prediluted with milk at 3.5% fat rate (25 mgs slurry formulation plus 2 ml milk per 10 grams of seed). A tube roller was used for coating. The solutions were gradually pipetted each on the rotating seeds followed by coating for min. 3 hours until all liquid had been soaked up by the seeds. Thereafter, the coated seeds were put flat on open trays for drying over night at room temperature.
(§5) Treated seeds were then placed into pots (7 cm diameter) on the surface of sandy loam, pressed down, flat covered with additional soil and finally covered with sandy soil, also pressed down, watered, and kept under good growth conditions in a greenhouse, until the plants had reached 2-leaf-stage (BBCH 12).
(§6) At that stage, post-emergence application of the specified herbicides was done on:
(§7) a) pot sets containing plants with safener-coated seeds as described above,
(§8) b) as a reference, pot sets of plants without seed treatment.
(§9) The herbicides were formulated as wettable powder (WP). Equivalent to the spray area, compound amounts were weighed out and diluted related to the water application rate (300 l/ha) to an aqueous suspension plus additive (1 l/ha MERO). Dosage related equivalents were conventionally sprayed on trays with the potted plants.
(§10) After application, the test plants were kept under good growth conditions in a greenhouse.
(§11) Assessment timings were 10 and 21 days after treatment (DAT) with the herbicide, by visual scoring of the crop damage in % (comparison of untreated with treated plants, either sprayed only with herbicide or with herbicide on plants with treated seeds).

[4] = test system: spring wheat, TRZAS Triso; test: as above; details: for HER effect + SAF [%] (crop damage) / Reduction [%] / Reduction [Difference]: mefenpyr-diethyl 0.5 g a.i./kg seed; for HER effect [%] (crop damage, herbicide without safener): no safener
From the text: as §3, §4, §5, §6, §7, §8, §9, §10, §11

[5] = HER 1.5 g a.i./ha + mefenpyr-diethyl 50 g a.i./ha, 21 DAT
[6] = herbicide alone 1.5 g a.i./ha, 21 DAT
[7] = HER 2 g a.i./ha + mefenpyr-diethyl 50 g a.i./ha, 21 DAT
[8] = HER 0.5 g a.i./ha post-emergence, 21 DAT
[9] = HER 2 g a.i./ha post-emergence, 21 DAT
[10] = HER 8 g a.i./ha post-emergence, 21 DAT
[11] = HER 8 g a.i./ha + mefenpyr-diethyl 50 g a.i./ha, 10 DAT
[12] = herbicide alone 8 g a.i./ha, 10 DAT
[13] = HER 6 g a.i./ha + mefenpyr-diethyl 50 g a.i./ha, 10 DAT
[14] = HER 24 g a.i./ha + mefenpyr-diethyl 100 g a.i./ha, 10 DAT
[15] = HER 8 g a.i./ha post-emergence, 10 DAT
[16] = HER 32 g a.i./ha post-emergence, 10 DAT
[17] = herbicide alone 8 g a.i./ha post-emergence, 10 DAT
[18] = herbicide alone 32 g a.i./ha post-emergence, 10 DAT
[19] = HER 2 g a.i./ha + mefenpyr-diethyl 50 g a.i./ha, 10 DAT
[20] = HER 32 g a.i./ha + mefenpyr-diethyl 100 g a.i./ha, 10 DAT
[21] = HER 6 g a.i./ha + mefenpyr-diethyl 50 g a.i./ha, 21 DAT
[22] = HER 24 g a.i./ha + mefenpyr-diethyl 100 g a.i./ha, 21 DAT
[23] = HER 2 g a.i./ha post-emergence, 10 DAT

Compound: CC(C)OC(=O)C1CC(NC(=O)C2(C(C)(F)F)CC(c3cc(F)cc(F)c3)=NO2)CO1 (mixture of isomers) [Example 1.88]
- HER effect + SAF [1, 5]: 10%
- Reduction [%] [1, 5]: 75%
- Reduction [Difference] [1, 5]: 30
- HER effect [1, 6]: 40%
- HER effect + SAF [2, 7]: 30%
- Reduction [%] [2, 7]: 57%
- Reduction [Difference] [2, 7]: 40
- HER effect ([2]; herbicide alone 2 g a.i./ha, 21 DAT): 70%
- HER effect + SAF [3, 8]: 0%
- Reduction [%] [3, 8]: 100%
- Reduction [Difference] [3, 8]: 20
- HER effect + SAF [3, 9]: 10%
- Reduction [%] [3, 9]: 80%
- Reduction [Difference] [3, 9]: 40
- HER effect + SAF [3, 10]: 20%
- Reduction [%] [3, 10]: 76%
- Reduction [Difference] [3, 10]: 65
- HER effect ([3]; herbicide alone 0.5 g a.i./ha post-emergence, 21 DAT): 20%
- HER effect ([3]; herbicide alone 2 g a.i./ha post-emergence, 21 DAT): 50%
- HER effect ([3]; herbicide alone 8 g a.i./ha post-emergence, 21 DAT): 85%
- HER effect + SAF [%] (crop damage) ([4]; 21 DAT, HER dose 2 g a.i./ha): 10%
- Reduction [%] ([4]; 21 DAT, HER dose 2 g a.i./ha): 86%
- Reduction [Difference] ([4]; 21 DAT, HER dose 2 g a.i./ha): 60
- HER effect [%] (crop damage, herbicide without safener) ([4]; 21 DAT, HER dose 2 g a.i./ha): 70%
- HER effect + SAF [%] (crop damage) ([4]; 21 DAT, HER dose 8 g a.i./ha): 20%
- Reduction [%] ([4]; 21 DAT, HER dose 8 g a.i./ha): 76%
- Reduction [Difference] ([4]; 21 DAT, HER dose 8 g a.i./ha): 65
- HER effect [%] (crop damage, herbicide without safener) ([4]; 21 DAT, HER dose 8 g a.i./ha): 85%

Compound: CC1(C(=O)NC2CC=C(C(=O)NS(C)(=O)=O)C2)CC(c2cc(F)cc(F)c2)=NO1 (mixture of isomers) [Example 1.61]
- HER effect + SAF [1, 11]: 30%
- Reduction [%] [1, 11]: 40%
- Reduction [Difference] [1, 11]: 20
- HER effect [1, 12]: 50%
- HER effect + SAF [2, 13]: 10%
- Reduction [%] [2, 13]: 80%
- Reduction [Difference] [2, 13]: 40
- HER effect + SAF [2, 14]: 20%
- Reduction [%] [2, 14]: 60%
- Reduction [Difference] [2, 14]: 30
- HER effect ([2]; herbicide alone 6 g a.i./ha, 10 DAT): 50%
- HER effect ([2]; herbicide alone 24 g a.i./ha, 10 DAT): 50%
- HER effect + SAF [3, 15]: 10%
- Reduction [%] [3, 15]: 80%
- Reduction [Difference] [3, 15]: 40
- HER effect + SAF [3, 16]: 20%
- Reduction [%] [3, 16]: 67%
- Reduction [Difference] [3, 16]: 40
- HER effect [3, 17]: 50%
- HER effect [3, 18]: 60%
- HER effect + SAF [%] (crop damage) ([4]; 10 DAT, HER dose 8 g a.i./ha): 10%
- Reduction [%] ([4]; 10 DAT, HER dose 8 g a.i./ha): 80%
- Reduction [Difference] ([4]; 10 DAT, HER dose 8 g a.i./ha): 40
- HER effect [%] (crop damage, herbicide without safener) ([4]; 10 DAT, HER dose 8 g a.i./ha): 50%

Compound: COC(=O)C1(C)CC(NC(=O)C2(C(C)(F)F)CC(c3cc(F)cc(F)c3)=NO2)CO1 (mixture of isomers) [Example 1.94]
- HER effect + SAF [1, 19]: 0%
- Reduction [%] [1, 19]: 100%
- Reduction [Difference] [1, 19]: 30
- HER effect + SAF [1, 11]: 30%
- Reduction [%] [1, 11]: 67%
- Reduction [Difference] [1, 11]: 60
- HER effect + SAF [1, 20]: 70%
- Reduction [%] [1, 20]: 22%
- Reduction [Difference] [1, 20]: 20
- HER effect ([1]; herbicide alone 2 g a.i./ha, 10 DAT): 30%
- HER effect [1, 12]: 90%
- HER effect ([1]; herbicide alone 32 g a.i./ha, 10 DAT): 90%
- HER effect + SAF [2, 5]: 0%
- Reduction [%] [2, 5]: 100%
- Reduction [Difference] [2, 5]: 20
- HER effect + SAF [2, 21]: 0%
- Reduction [%] [2, 21]: 100%
- Reduction [Difference] [2, 21]: 85
- HER effect + SAF [2, 22]: 10%
- Reduction [%] [2, 22]: 88%
- Reduction [Difference] [2, 22]: 75
- HER effect [2, 6]: 20%
- HER effect ([2]; herbicide alone 6 g a.i./ha, 21 DAT): 85%
- HER effect ([2]; herbicide alone 24 g a.i./ha, 21 DAT): 85%
- HER effect + SAF [3, 23]: 0%
- Reduction [%] [3, 23]: 100%
- Reduction [Difference] [3, 23]: 30
- HER effect + SAF [3, 15]: 20%
- Reduction [%] [3, 15]: 78%
- Reduction [Difference] [3, 15]: 70
- HER effect + SAF [3, 16]: 30%
- Reduction [%] [3, 16]: 67%
- Reduction [Difference] [3, 16]: 60
- HER effect ([3]; herbicide alone 2 g a.i./ha post-emergence, 10 DAT): 30%
- HER effect [3, 17]: 90%
- HER effect [3, 18]: 90%
- HER effect + SAF [%] (crop damage) ([4]; 21 DAT, HER dose 1.5 g a.i./ha): 0%
- Reduction [%] ([4]; 21 DAT, HER dose 1.5 g a.i./ha): 100%
- Reduction [Difference] ([4]; 21 DAT, HER dose 1.5 g a.i./ha): 20
- HER effect [%] (crop damage, herbicide without safener) ([4]; 21 DAT, HER dose 1.5 g a.i./ha): 20%
- HER effect + SAF [%] (crop damage) ([4]; 21 DAT, HER dose 6 g a.i./ha): 10%
- Reduction [%] ([4]; 21 DAT, HER dose 6 g a.i./ha): 88%
- Reduction [Difference] ([4]; 21 DAT, HER dose 6 g a.i./ha): 75
- HER effect [%] (crop damage, herbicide without safener) ([4]; 21 DAT, HER dose 6 g a.i./ha): 85%
- HER effect + SAF [%] (crop damage) ([4]; 21 DAT, HER dose 24 g a.i./ha): 20%
- Reduction [%] ([4]; 21 DAT, HER dose 24 g a.i./ha): 76%
- Reduction [Difference] ([4]; 21 DAT, HER dose 24 g a.i./ha): 65
- HER effect [%] (crop damage, herbicide without safener) ([4]; 21 DAT, HER dose 24 g a.i./ha): 85%

Reference: patent publication US20230200390A1, “SELECTIVE HERBICIDES BASED ON SUBSTITUTED ISOXAZOLIN CARBOXAMIDES AND MEFENPYR-DIETHYL” (BAYER AKTIENGESELLSCHAFT, priority 2020, published 2023)
